Data reported in patent US11000033B2, “Ketone or oxime compound, and herbicide” (NISSAN CHEMICAL CORPORATION, priority 2014, dated 2021).

What was measured:
Format in all cases: in vivo
[1] = tested on: Echinochloa oryzacola Vasing.; test: Test Example 1: herbicidal activity, application before weed generation in submerged conditions (symbol A)
In short: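 Ratings (5: ≥90%, near complete withering; 4: 70–<90%; 3: 40–<70%; 2: 20–<40%; 1: 5–<20%; 0: ≤5%) were assigned 3 weeks after the diluted emulsion was applied to the water surface of freshly sown, submerged pots.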

Scirpus juncoides = test: Test Example 2: herbicidal activity, application during weed generation in submerged conditions (symbol B); conditions: Table 23, grade 0-5 by criteria of Test Example 1
In short: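 Scoring of herbicidal effect took place 3 weeks after treatment, using the criteria of the earlier test. Treatment was water-surface application of diluted emulsifiable compound at a set dose. Plants were at one- to two-leaf stage in submerged alluvial soil (4 cm depth), greenhouse 25-30° C.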

Cyperus difformis = test: Test Example 3: herbicidal effect by foliage application, Wagner pot (symbol E); conditions: for E herbicidal effect grade: Table 24
In short: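 Foliar spray of a water-diluted emulsion at a predetermined herbicide amount, applied to 14-day-old plants. Seedlings were raised in flooded alluvial soil (0.1–0.5 cm water) at 25–30 °C in a greenhouse. Injury was rated after 3 weeks against fixed criteria.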

[2] = tested on: Echinochloa crus-galli var. crus-galli; test: Test Example 4: herbicidal effect by soil treatment (symbol H); conditions: for Herbicidal effect grade, H: Echinochloa crus-galli var. crus-galli: application herbicide amount 320 g/ha
In short: (§1)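 Seeds were sown in sterilized diluvial soil, covered with about 1.5 cm of soil, and the soil surface was sprayed with a water-diluted emulsion of the compound at a predetermined rate. Plants grew in a greenhouse at 25° C. to 30° C.; effects were scored visually 3 weeks after application.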

Amaranthus retroflexus [3] = test: Test Example 4: herbicidal effect by soil treatment (symbol N); conditions: for Herbicidal effect grade, N: Amaranthus retroflexus: application herbicide amount 320 g/ha
In short: as §1

Galium spurium [4] = test: Test Example 4: herbicidal effect by soil treatment (symbol Q); conditions: for Herbicidal effect grade, Q: Galium spurium: application herbicide amount 320 g/ha
In short: as §1

corn = test: Test Example 4: effect on crop by soil treatment (symbol c); conditions: for Effect on crop grade, c: corn: application herbicide amount 320 g/ha
In short: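 Steps: fill box with sterilized diluvial soil; sow seed spot-like; cover with ~1.5 cm soil; grow in greenhouse (25° C. to 30° C.).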

rapeseed = test: Test Example 4: effect on crop by soil treatment (symbol g); conditions: for Effect on crop grade, g: rapeseed: application herbicide amount 320 g/ha
In short: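 Crop seeds, among them rice, wheat, beet and rapeseed, were sown in sterilized diluvial soil and covered with about 1.5 cm of soil. Boxes were kept in a greenhouse at 25° C. to 30° C. for plant growth.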

Avena fatua = test: Test Example 5: herbicidal effect by foliage application, plastic box (symbol I); conditions: 3 weeks after application
In short: (§2)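 After sowing into sterilized diluvial soil and growing two weeks under glass at 25° C. to 30° C., seedlings receive a uniform foliar spray of diluted emulsion. Damage is judged visually three weeks on.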

Lolium multiflorum Lam. = test: Test Example 5: herbicidal effect by foliage application, plastic box (symbol K); conditions: 3 weeks after application
In short: as §2

Apera spica-venti = test: Test Example 5: herbicidal effect by foliage application, plastic box (symbol L); conditions: 3 weeks after application
In short: as §2

Abutilon theophrasti = test: Test Example 5: herbicidal effect by foliage application, plastic box (symbol M); conditions: 3 weeks after application
In short: as §2

Amaranthus retroflexus [5] = test: Test Example 5: herbicidal effect by foliage application, plastic box (symbol N); conditions: 3 weeks after application
In short: as §2

Stellaria media = test: Test Example 5: herbicidal effect by foliage application, plastic box (symbol P); conditions: 3 weeks after application
In short: as §2

Galium spurium [6] = test: Test Example 5: herbicidal effect by foliage application, plastic box (symbol Q); conditions: 3 weeks after application
In short: as §2

Veronica persica = test: Test Example 5: herbicidal effect by foliage application, plastic box (symbol R); conditions: 3 weeks after application
In short: as §2

[7] = application herbicide amount 102 g/ha
[8] = application herbicide amount 320 g/ha

SMILES | Herbicidal effect grade, B: Scirpus juncoides (Scirpus juncoides; [8]) | A (Echinochloa oryzacola Vasing.) herbicidal effect grade [1, 8] | E herbicidal effect grade (Cyperus difformis; [8]) | Herbicidal effect grade, H: Echinochloa crus-galli var. crus-galli [2] | Herbicidal effect grade, N: Amaranthus retroflexus (Amaranthus retroflexus [3]) | Herbicidal effect grade, Q: Galium spurium (Galium spurium [4]) | Effect on crop grade, c: corn (corn) | Effect on crop grade, g: rapeseed (rapeseed) | I: Avena fatua, herbicidal effect grade (Avena fatua; 320 g/ha) | K: Lolium multiflorum Lam., herbicidal effect grade (Lolium multiflorum Lam.; 320 g/ha) | L: Apera spica-venti, herbicidal effect grade (Apera spica-venti; 320 g/ha) | M: Abutilon theophrasti, herbicidal effect grade (Abutilon theophrasti; 320 g/ha) | N: Amaranthus retroflexus, herbicidal effect grade (Amaranthus retroflexus [5]; 320 g/ha) | P: Stellaria media, herbicidal effect grade (Stellaria media; 320 g/ha) | Q: Galium spurium, herbicidal effect grade (Galium spurium [6]; 320 g/ha) | R: Veronica persica, herbicidal effect grade (Veronica persica; 320 g/ha) | other results
CC(=O)CC1CC(O)=C(c2c(C)cc(C)cc2C)C1=O (stereo not shown) [2-001, 3-hydroxy-2-mesityl-5-(2-oxopropyl)cyclopent-2-enone] | – | – | – | – | – | – | – | – | – | – | – | – | – | – | – | – | Herbicidal effect grade, A: Echinochloa oryzacola Vasing. [1, 7]: 4 (Herbicidal ratio of 70% or higher and lower than 90%); Herbicidal effect grade, B: Scirpus juncoides (Scirpus juncoides; [7]): 0 (Herbicidal ratio of 5% or lower (almost no effect)); herbicidal effect on E, grade 0-5 (Cyperus difformis; [7]): 5 (Herbicidal ratio of 90% or more (almost completely withered)); H: Echinochloa crus-galli var. crus-galli, herbicidal effect grade ([2]; 102 g/ha): 5 (Herbicidal ratio of 90% or more (almost completely withered)); N: Amaranthus retroflexus, herbicidal effect grade (Amaranthus retroflexus [3]; 102 g/ha): 1 (Herbicidal ratio of 5% or higher and lower than 20%); Q: Galium spurium, herbicidal effect grade (Galium spurium [4]; 102 g/ha): 0 (Herbicidal ratio of 5% or lower (almost no effect)); c: corn, effect grade on crop (corn; 102 g/ha): 4 (Herbicidal ratio of 70% or higher and lower than 90%); g: rapeseed, effect grade on crop (rapeseed; 102 g/ha): 3 (Herbicidal ratio of 40% or higher and lower than 70%); I: Avena fatua, herbicidal effect grade (Avena fatua; 102 g/ha): 4 (Herbicidal ratio of 70% or higher and lower than 90%); K: Lolium multiflorum Lam., herbicidal effect grade (Lolium multiflorum Lam.; 102 g/ha): 5 (Herbicidal ratio of 90% or more (almost completely withered)); L: Apera spica-venti, herbicidal effect grade (Apera spica-venti; 102 g/ha): 4 (Herbicidal ratio of 70% or higher and lower than 90%); M: Abutilon theophrasti, herbicidal effect grade (Abutilon theophrasti; 102 g/ha): 1 (Herbicidal ratio of 5% or higher and lower than 20%); N: Amaranthus retroflexus, herbicidal effect grade (Amaranthus retroflexus [5]; 102 g/ha): 2 (Herbicidal ratio of 20% or higher and lower than 40%); P: Stellaria media, herbicidal effect grade (Stellaria media; 102 g/ha): 3 (Herbicidal ratio of 40% or higher and lower than 70%); Q: Galium spurium, herbicidal effect grade (Galium spurium [6]; 102 g/ha): 3 (Herbicidal ratio of 40% or higher and lower than 70%); R: Veronica persica, herbicidal effect grade (Veronica persica; 102 g/ha): 2 (Herbicidal ratio of 20% or higher and lower than 40%)
CC(CC1CC(O)=C(c2c(C)cc(C)cc2C)C1=O)=NOCc1cccc(Cl)c1 (stereo not shown) [1-114] | 3 (Herbicidal ratio of 40% or higher and lower than 70%) | – | – | – | – | – | – | – | – | – | – | – | – | – | – | – | Herbicidal effect grade, A: Echinochloa oryzacola Vasing. [1, 8]: 5 (Herbicidal ratio of 90% or more (almost completely withered)); herbicidal effect on E, grade 0-5 (Cyperus difformis; [8]): 2 (Herbicidal ratio of 20% or higher and lower than 40%); H: Echinochloa crus-galli var. crus-galli, herbicidal effect grade ([2]; 320 g/ha): 0 (Herbicidal ratio of 5% or lower (almost no effect)); N: Amaranthus retroflexus, herbicidal effect grade (Amaranthus retroflexus [3]; 320 g/ha): 0 (Herbicidal ratio of 5% or lower (almost no effect)); Q: Galium spurium, herbicidal effect grade (Galium spurium [4]; 320 g/ha): 0 (Herbicidal ratio of 5% or lower (almost no effect)); c: corn, effect grade on crop (corn; 320 g/ha): 0 (Herbicidal ratio of 5% or lower (almost no effect)); g: rapeseed, effect grade on crop (rapeseed; 320 g/ha): 1 (Herbicidal ratio of 5% or higher and lower than 20%); I: Avena fatua, herbicidal effect (criteria 0-5) (Avena fatua; 320 g/ha): 5 (Herbicidal ratio of 90% or more (almost completely withered)); K: Lolium multiflorum Lam., herbicidal effect (criteria 0-5) (Lolium multiflorum Lam.; 320 g/ha): 5 (Herbicidal ratio of 90% or more (almost completely withered)); L: Apera spica-venti, herbicidal effect (criteria 0-5) (Apera spica-venti; 320 g/ha): 5 (Herbicidal ratio of 90% or more (almost completely withered)); M: Abutilon theophrasti, herbicidal effect (criteria 0-5) (Abutilon theophrasti; 320 g/ha): 1 (Herbicidal ratio of 5% or higher and lower than 20%); N: Amaranthus retroflexus, herbicidal effect (criteria 0-5) (Amaranthus retroflexus [5]; 320 g/ha): 1 (Herbicidal ratio of 5% or higher and lower than 20%); P: Stellaria media, herbicidal effect (criteria 0-5) (Stellaria media; 320 g/ha): 3 (Herbicidal ratio of 40% or higher and lower than 70%); Q: Galium spurium, herbicidal effect (criteria 0-5) (Galium spurium [6]; 320 g/ha): 0 (Herbicidal ratio of 5% or lower (almost no effect)); R: Veronica persica, herbicidal effect (criteria 0-5) (Veronica persica; 320 g/ha): 2 (Herbicidal ratio of 20% or higher and lower than 40%)
Cc1cc(-n2cc(Cl)cn2)cc(C)c1C1=C(O)CC(CC(=NOCC(F)(F)F)C(C)C)C1=O (stereo not shown) [9-014] | 0 (Herbicidal ratio of 5% or lower (almost no effect)) | 5 (Herbicidal ratio of 90% or more (almost completely withered)) | 5 (Herbicidal ratio of 90% or more (almost completely withered)) | 1 (Herbicidal ratio of 5% or higher and lower than 20%) | 0 (Herbicidal ratio of 5% or lower (almost no effect)) | 0 (Herbicidal ratio of 5% or lower (almost no effect)) | 0 (Herbicidal ratio of 5% or lower (almost no effect)) | 0 (Herbicidal ratio of 5% or lower (almost no effect)) | 4 (Herbicidal ratio of 70% or higher and lower than 90%) | 4 (Herbicidal ratio of 70% or higher and lower than 90%) | 3 (Herbicidal ratio of 40% or higher and lower than 70%) | 0 (Herbicidal ratio of 5% or lower (almost no effect)) | 0 (Herbicidal ratio of 5% or lower (almost no effect)) | 0 (Herbicidal ratio of 5% or lower (almost no effect)) | 0 (Herbicidal ratio of 5% or lower (almost no effect)) | 2 (Herbicidal ratio of 20% or higher and lower than 40%) | –
CON=C(C)CC1C(O)=C(c2c(C)cc(C)cc2C)C(=O)C1C (mixture of isomers) [12-002] | 3 (Herbicidal ratio of 40% or higher and lower than 70%) | 5 (Herbicidal ratio of 90% or more (almost completely withered)) | 5 (Herbicidal ratio of 90% or more (almost completely withered)) | 5 (Herbicidal ratio of 90% or more (almost completely withered)) | 0 (Herbicidal ratio of 5% or lower (almost no effect)) | 0 (Herbicidal ratio of 5% or lower (almost no effect)) | 3 (Herbicidal ratio of 40% or higher and lower than 70%) | 1 (Herbicidal ratio of 5% or higher and lower than 20%) | 5 (Herbicidal ratio of 90% or more (almost completely withered)) | 5 (Herbicidal ratio of 90% or more (almost completely withered)) | 5 (Herbicidal ratio of 90% or more (almost completely withered)) | 1 (Herbicidal ratio of 5% or higher and lower than 20%) | 0 (Herbicidal ratio of 5% or lower (almost no effect)) | 4 (Herbicidal ratio of 70% or higher and lower than 90%) | 4 (Herbicidal ratio of 70% or higher and lower than 90%) | 4 (Herbicidal ratio of 70% or higher and lower than 90%) | –
